Data on one molecule can be found in article PMC11219860, “A chemogenetic approach for dopamine imaging with tunable sensitivity” (Nature Communications, 2024).

In series [1] the target is hmDRD1 (Homo sapiens, UniProt P21728). Kind of series: NanoBit complementation assay of mini-Gs recruitment. The format is cell-based. The protocol:
(§1) To measure the effect of DETQ on mini-G protein recruitment by different GPCRs we used a Nanoluciferase (NanoBit)-based complementation assay[26],[27]. For this HEK293T cells were seeded in six-well plates (Techno Plastic Products) at a density of 300,000 cells per well and co-transfected with plasmids encoding either hmDRD1, msDRD1, msDRD2, msDRD5, msADRA1a, msβ2AR or ms5HT6 carrying a C-terminally fused SmBiT, in combination with the corresponding mini-G protein probe[78] (mini-Gs: for DRD1, DRD5, β2AR, 5HT6R; mini-Gq: for ADRA1a; or mini-Gi: for DRD2), which were N-terminally fused to LgBiT, in a 1:1 DNA ratio using Effectene transfection reagent (Qiagen). 24 h after transfection cells were detached using Versene (ThermoFisher Scientific), washed, centrifuged (RT, 150 g, 3 min), and resuspended (0.5 × 10^6 cells ml^−1) in Fluorobrite DMEM (ThermoFisher Scientific) complemented with 30 mM HEPES (ThermoFisher Scientific). First, 95 µl of the cell suspension were added into each well of a white flat-bottom 96-well OptiPlate (PerkinElmer), then 25 µl of a 20-fold dilution of Nano-Glo reagent in LCS buffer (Promega) and last either 5 ul of pure Fluorobrite-DMEM or 5 ul of DETQ diluted in Fluorobrite DMEM (final concentration 100 nM for DRD1; 1 µM for all other receptors). The plate was incubated at 37 °C for 30 min, before the luminescence signal was measured at 37 °C using a Tecan Spark plate reader before and after the manual addition of 25 µl of either ligand solution (final concentrations ranging from 1 nM to 100 µM), pure Fluorobrite-DMEM or 25 µl of a DETQ solution (1 µM final concentration).
(§2) For in vitro luminescence assays, ligand traces were divided by buffer traces, the area under the curve for each trace was calculated using GraphPad Prism, values were normalized and fitted as dose response curve. The change in luminescence (∆L/L0) upon addition of different ligands was calculated as follows: (Lt – L0)/L0, with Lt being the Luminescence at ten timepoints t immediately after ligand application, and L0 being the luminescence of ten timepoints before ligand application. The statistical significance was determined using Welch’s ANOVA followed by Dunnett’s multiple comparison test (comparison of ligand or vehicle to ligand). For ex vivo imaging experiments, statistical analyses were performed in Prism (GraphPad) using independent samples t-test or nonparametric Mann-Whitney U-test when assumption of normality was violated (assessed using Schapiro-Wilk’s test). Curve fitting parameters were compared by extra sum-of-squares F test. For in vivo imaging experiments, statistical tests were paired and unpaired t-tests (two-tailed) and repeated-measures ANOVA for parametric data, while they were Wilcoxon rank sum tests or Mann-Whitney for non-parametric data. Sidak or Tukey post-hoc tests correcting for multiple comparisons were used in the case of significant interactions in ANOVA. All p-values are indicated in the Results section. […] No statistical methods were used to predetermine sample size. No data were excluded from the analyses. Group allocations used in this study were randomly assigned to animals and/or cultured cells. The Investigators were not blinded to allocation during experiments and outcome assessment.

The target in series [2] is T1, ms5HT6 (Mus musculus, UniProt Q9R1C8).
T1 construct: expressed in transfected cells; host or cells: HEK293T
Described as above. The format is cell-based. The protocol: as §1, §2

The target in series [3] is T2, msDRD1 (Mus musculus, UniProt Q61616).
T2 construct: expressed in transfected cells; host or cells: HEK293T
The description is as above. The format is cell-based. The protocol: as §1, §2

The target in series [4] is T3, msDRD5 (Mus musculus, UniProt Q8BLD9).
T3 construct: expressed in transfected cells; host or cells: HEK293T
The description is as above. The format is cell-based. The protocol:
as §1, §2

Series [5] has as its target T4, msβ2AR (Mus musculus, UniProt P18762).
T4 construct: expressed in transfected cells; host or cells: HEK293T
The description is as above. Format: cell-based. As for the experimental part:
as §1, §2

A short description of series [6]: In vivo pharmacokinetics, free brain concentration (LC/MS). Particulars: 10 mg/kg i.p. Further details: species or system mouse. As for the experimental part:
To measure free brain and plasma concentrations of DETQ in the mouse, male C57Bl6/N mice from Taconic Biosciences (Germantown, NY, USA) weighing 23–25 g (9–10 weeks old) were used for this study. The animals were acclimated for at least 72 hours after arrival from the breeder and housed five per cage in “shoe box” size cages with free access to food and water (lights on from 5 am to 5 pm) before use. The experiment was approved by the Institutional IACUC committee, and Eli Lilly is an AAALAC-certified facility. DETQ (Eli Lilly, see above) was formulated as a fine suspension in 20% HPBCD in purified water using ultrasonication. The drug was administered intraperitoneally at 10 mg/kg body weight (10 mL/kg. dose volume) with four animals per time point (0.25, 0.5, 0.75, 1, 1.5, and 2 hr). The animals were decapitated at the time points indicated above, and their frontal brains (mainly frontal cortex) were rapidly dissected and frozen. Blood was collected at decapitation, and plasma was separated by centrifugation. Both samples were then stored at −80 °C until further analysis. DETQ concentrations were measured in plasma and brain tissues by liquid chromatography with tandem mass spectrometry (LC/MS). The samples were analyzed using an AB Sciex API 4000 quadrupole mass spectrometer (Applied Biosystems, Foster City, CA) with a TurboIonSpray interface. Brain samples were homogenized in a methanol-water solution (20:80) using a probe sonicator. Both brain and plasma samples underwent extraction procedures. Calibration curves were established by spiking blank plasma or brain samples with an internal standard. The system utilized Shimadzu LC-10AD pumps controlled by an SCL-10A controller (Kyoto, Japan). Sample injections were performed by a Z-215 liquid handler (Gilson, Middleton, WI). Chromatographic separation of all compounds was achieved using a Betasil javelin C18 HPLC column, 20 mm × 2.1 mm, 5 μm (Thermo Fisher Scientific, Waltham, MA). The unbound fraction in brain tissue samples was determined by equilibrium dialysis in mouse brain homogenate mixtures after incubation of the compound for 4.5 hours. The unbound brain concentrations were calculated from the following equation[24]: Totalbrainconcentration*Unboundfractioninbrain=Unboundbrainconcentration(Cu,brain)

T4 sequence (P18762 whole entry): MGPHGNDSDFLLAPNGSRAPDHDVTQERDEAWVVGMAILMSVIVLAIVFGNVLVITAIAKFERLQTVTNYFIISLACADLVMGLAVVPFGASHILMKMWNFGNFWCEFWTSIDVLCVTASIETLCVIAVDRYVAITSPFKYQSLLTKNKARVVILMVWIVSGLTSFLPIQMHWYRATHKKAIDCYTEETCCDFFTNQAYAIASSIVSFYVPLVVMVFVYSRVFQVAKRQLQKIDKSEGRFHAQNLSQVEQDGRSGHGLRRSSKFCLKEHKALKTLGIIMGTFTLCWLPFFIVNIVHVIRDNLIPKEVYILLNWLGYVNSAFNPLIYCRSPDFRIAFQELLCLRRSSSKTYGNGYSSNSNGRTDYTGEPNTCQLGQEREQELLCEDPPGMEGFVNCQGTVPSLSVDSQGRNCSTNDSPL
T3 sequence (Q8BLD9 whole entry): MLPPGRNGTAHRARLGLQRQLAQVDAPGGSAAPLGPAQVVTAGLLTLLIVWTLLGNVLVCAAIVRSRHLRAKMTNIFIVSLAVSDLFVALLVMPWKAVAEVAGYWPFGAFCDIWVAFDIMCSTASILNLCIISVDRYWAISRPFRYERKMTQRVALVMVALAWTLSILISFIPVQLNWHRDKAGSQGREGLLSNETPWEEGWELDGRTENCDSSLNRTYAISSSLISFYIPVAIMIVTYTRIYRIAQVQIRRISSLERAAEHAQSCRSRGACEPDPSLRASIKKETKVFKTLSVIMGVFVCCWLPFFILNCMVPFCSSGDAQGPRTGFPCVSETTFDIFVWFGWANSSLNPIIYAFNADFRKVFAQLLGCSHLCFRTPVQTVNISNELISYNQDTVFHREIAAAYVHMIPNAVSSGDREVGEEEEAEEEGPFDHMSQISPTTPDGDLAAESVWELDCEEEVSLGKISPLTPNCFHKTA
T1 sequence (Q9R1C8 whole entry): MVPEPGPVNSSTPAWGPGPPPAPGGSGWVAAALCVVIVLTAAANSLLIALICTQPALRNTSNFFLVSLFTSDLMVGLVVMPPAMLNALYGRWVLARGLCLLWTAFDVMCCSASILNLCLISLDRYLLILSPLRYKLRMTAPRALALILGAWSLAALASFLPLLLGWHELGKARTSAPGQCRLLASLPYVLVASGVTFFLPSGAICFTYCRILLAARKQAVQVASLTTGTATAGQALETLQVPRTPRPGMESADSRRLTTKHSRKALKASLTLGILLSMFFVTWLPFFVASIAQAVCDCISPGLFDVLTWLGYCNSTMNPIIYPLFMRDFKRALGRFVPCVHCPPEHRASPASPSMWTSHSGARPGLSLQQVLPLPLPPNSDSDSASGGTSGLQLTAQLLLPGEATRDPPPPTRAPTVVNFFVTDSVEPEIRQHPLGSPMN
Chain of hmDRD1 (P21728 whole entry, the tested form may be a part): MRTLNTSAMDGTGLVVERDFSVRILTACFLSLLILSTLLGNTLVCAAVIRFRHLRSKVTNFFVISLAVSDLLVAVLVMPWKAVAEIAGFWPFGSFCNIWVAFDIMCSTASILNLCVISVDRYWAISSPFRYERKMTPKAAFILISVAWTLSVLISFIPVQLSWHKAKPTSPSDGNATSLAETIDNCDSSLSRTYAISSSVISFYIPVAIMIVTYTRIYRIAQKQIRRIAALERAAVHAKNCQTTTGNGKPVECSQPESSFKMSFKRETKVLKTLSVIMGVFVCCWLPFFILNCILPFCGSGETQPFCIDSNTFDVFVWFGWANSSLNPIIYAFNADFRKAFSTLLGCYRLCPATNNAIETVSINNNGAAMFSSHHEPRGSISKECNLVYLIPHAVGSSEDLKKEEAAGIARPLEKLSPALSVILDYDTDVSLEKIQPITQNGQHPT
T2 sequence (Q61616 whole entry): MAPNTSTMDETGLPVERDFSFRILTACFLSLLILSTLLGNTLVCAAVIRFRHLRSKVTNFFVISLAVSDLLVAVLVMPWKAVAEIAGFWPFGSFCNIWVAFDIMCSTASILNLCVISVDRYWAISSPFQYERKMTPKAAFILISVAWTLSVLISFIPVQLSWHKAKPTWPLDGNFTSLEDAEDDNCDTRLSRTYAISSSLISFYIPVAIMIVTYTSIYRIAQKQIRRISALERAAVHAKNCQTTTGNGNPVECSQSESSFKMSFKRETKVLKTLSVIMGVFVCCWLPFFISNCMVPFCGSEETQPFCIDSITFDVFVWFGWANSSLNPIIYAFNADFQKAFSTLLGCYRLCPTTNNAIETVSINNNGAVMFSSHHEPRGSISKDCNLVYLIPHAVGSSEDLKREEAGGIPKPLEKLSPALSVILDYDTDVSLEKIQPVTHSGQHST

In the case of `C[C@H]1c2cccc(C(C)(C)O)c2C[C@H](CO)N1C(=O)Cc1c(Cl)cccc1Cl` [DETQ, 2-(2,6-dichlorophenyl)-1-((1S,3R)-3-(hydroxymethyl)-5-(2-hydroxypropan-2-yl)-1-methyl-3,4-dihydroisoquinolin-2(1H)-yl)ethan-1-one], the “allosteric modulator mode: potentiation of mini-Gs recruitment during DA titration” value in series [1] (DETQ 100 nM) is “strong and significant potentiation”; in series [3] (DETQ 100 nM), “potentiation of mini-Gs recruitment only in the case of the hmDRD1”. The “agonist mode: direct agonist effect” value in series [1] (DETQ 1 µM alone), in series [2] (DETQ 1 µM alone), in series [3] (DETQ 1 µM alone), in series [4] (DETQ 1 µM alone) and in series [5] (DETQ 1 µM alone) was “no direct agonist effect” in each case. In addition, the “allosteric modulator mode: effect on agonist dose-response” value in series [2] (DETQ 1 µM, 5HT) is given as “No allosteric effect”; in series [4] (DETQ 1 µM, DA), “No allosteric effect”; in series [5] (DETQ 1 µM, NE) it was “No allosteric effect”. The “clearance from the brain” value in series [6] (2 hours post-injection) is listed as “almost completely cleared”. The concentration at 1 h in series [6] (male, C57Bl6/N, mouse, brain (frontal brain, unbound concentration), intraperitoneal, 1-hour post-injection, read-out: free brain level) is under 50 nM. Further, in series [6] (male, C57Bl6/N, mouse, brain (frontal brain, unbound concentration), intraperitoneal, 15 minutes after dosing, read-out: free brain level), the concentration at 15 min is about 270 nM. For the same molecule, the concentration at 45 min in series [6] (male, C57Bl6/N, mouse, brain (frontal brain, unbound concentration), intraperitoneal, 45 minutes post-injection, read-out: free brain level) is about 110 nM.
